Test results: publication PMC12040169 (PLOS Biology, 2025)

Experiment: in vitro
Settings: human, hela cells, % viability

First: Cc1csc(-c2cn3ccnc3c(N3CCN(c4ccccn4)CC3)n2)c1 [CBK066530]
Second: Cc1cccnc1Nc1nc(-c2ccccn2)cs1 [CBK267272]
The viability at 28.5 h, 10 µM of the first is higher: 95.6% for the first, 91.5% for the second.

First: Cc1cc(=O)nc(SC(C)C(=O)O)[nH]1 (centres unmarked) [CBK264630]
Second: CC(=O)C(Sc1nc(NC(C)C)nc(N(C)C)n1)C(C)=O [CBK269811]
The viability at 28.5 h, 10 µM of the first is higher: 95.3% for the first, 90.8% for the second.

Compared with `CC1CCCN(C(=O)c2coc(COc3ccc(F)cc3)n2)C1` (centres unmarked) [CBK306874], `O=C(c1ccc(F)cc1)[C@H]1CCCN(C(=O)c2cc(C3CC3)n[nH]2)C1` [CBK282410] is higher in viability at 28.5 h, 10 µM: 85.5% for the first, 99.6% for the second.

First: COc1ccc(C(CC(=O)O)CC(=O)O)cc1OC [CBK263545]
Second: COc1ccc(CN(CCN(C)C)C(=O)NCc2ccc(-c3ccccc3)cc2)cc1OC [CBK159293]
The viability at 28.5 h, 10 µM of the first is higher: 91.9% for the first, 91.4% for the second.

Compared with `Cc1cc(C(=O)Nc2cccc3cc[nH]c23)ccc1Cl` [CBK160078], `COc1ccccc1OCC(=O)Nc1cc(C)nc2ccccc12` [CBK122728] is higher in viability at 28.5 h, 10 µM: 96.2% for the first, 97.3% for the second.

Compared with `CC(=O)Nc1cccc(Oc2nccnc2/C=C/c2ccccc2)c1` [CBK106881], `O=C(CSc1nnc(-c2ccncc2)n1-c1ccccc1)Nc1ccc([N+](=O)[O-])cc1` [CBK266620] is higher in viability at 28.5 h, 10 µM: 91.6% for the first, 96.3% for the second.

Going from `Cc1ccc(N2C(=O)N[C@@H]3CCN(C(=O)c4ccc(C(C)(C)C)cc4)[C@@H]3C2=O)cc1` [CBK289284] to `COc1ccc(C2=NN(c3ccc(C(=O)O)cc3)C(c3ccc(OC)c(OC)c3)C2)cc1` (centres unmarked) [CBK296134], the viability at 28.5 h, 10 µM rises from 98.8% to 111%.

Compared with `CCC(CCC(=O)Nc1ccccc1Cl)C(=O)O` (centres unmarked) [CBK286767], `CCCCn1c(SCCC(=O)Nc2ccccc2C(=O)c2ccccc2)n[nH]c1=O` [CBK296693] is higher in viability at 28.5 h, 10 µM: 86.8% for the first, 87.3% for the second.

First: COc1ccccc1-c1ccc(CC2(C(=O)NCc3cccs3)CCOCC2)cc1 [CBK286517]
Second: COc1ccccc1CC(=O)N1CCN(Cc2ccco2)C[C@@H]1C [CBK285481]
The viability at 28.5 h, 10 µM of the first is lower: 93% for the first, 105% for the second.

Going from `CC(C)[C@H](CO)Nc1nccnc1-c1ccncc1` [CBK089030] to `COCCNc1cc(-c2ccncc2)ncn1` [CBK037729], the viability at 28.5 h, 10 µM falls from 91.9% to 87.6%.

Going from `Clc1ccc(OCC2CCN(Cc3c[nH]cn3)CC2)cc1` [CBK281543] to `O=[N+]([O-])c1ccc(CN2CCN(C3CCN(Cc4ccccc4)CC3)CC2)cc1` [CBK264310G], the viability at 28.5 h, 10 µM rises from 82.7% to 98.5%.

Going from `Cc1ccc(C)c(Sc2ccc(S(=O)(=O)Nc3ccc(C(=O)O)cc3)cc2)c1` [CBK297529] to `COc1ccc(S(=O)(=O)N2Cc3ccccc3CC2C(=O)Nc2ccc(O)cc2)cc1OC` (centres unmarked) [CBK293967], the viability at 28.5 h, 10 µM falls from 109% to 90.9%.

First: CCN1CCN(Cc2nc3c(c(=O)n(C)c(=O)n3C)n2CCc2ccccc2)CC1 [CBK269547]
Second: CSCCCN1C(=O)CN(Cc2ccccc2)C1=O [CBK162363]
The viability at 28.5 h, 10 µM of the first is higher: 110% for the first, 91.4% for the second.

Compared with `COc1cccc(CN2CCc3cc(OC)c(OC)cc3C2)c1` [CBK126441], `COc1ccc(CN2CCN(C(=O)c3cccc(F)c3)CC2)c(OC)c1OC` [CBK074523] is lower in viability at 28.5 h, 10 µM: 102% for the first, 95.5% for the second.

Compared with `CN1CC=C(/C=C/c2ccc(Sc3ncccn3)o2)CC1` [CBK283797], `Cc1ccc(CCC(=O)N2CCCCC2c2nc3ccccc3[nH]2)o1` (centres unmarked) [CBK282316] is higher in viability at 28.5 h, 10 µM: 82.3% for the first, 85.7% for the second.

First: COc1cccc(CN2CCN(CC(=O)N3CCCC3)[C@@H](C)C2)c1 [CBK286171]
Second: CS(=O)(=O)c1ccc(Cn2ccnc(N3CCN(C(=O)C4CCCCC4)CC3)c2=O)cc1 [CBK153771]
The viability at 28.5 h, 10 µM of the first is lower: 78.1% for the first, 90.3% for the second.

Going from `O=C(COC(=O)c1cc(S(=O)(=O)N2CCCCC2)ccc1Cl)c1ccccc1` [CBK261657] to `O=C(NC(Cc1ccccc1)C(=O)O)c1ccc(C#CC2(O)CCCCC2)cc1` (centres unmarked) [CBK267702], the viability at 28.5 h, 10 µM rises from 86% to 93%.

First: CCCCOc1ccc(-c2nnn(C(C)C(=O)O)n2)cc1 (centres unmarked) [CBK070540]
Second: CCCn1c(SCC(=O)NCc2ccc(OC)cc2)n[nH]c1=O [CBK297549]
The viability at 28.5 h, 10 µM of the first is higher: 103% for the first, 90.2% for the second.

Going from `Cn1nc(C(C)(C)C)cc1NC(=O)CN1CCc2cncnc2C1` [CBK304934] to `O=C(NCCCN1CCCC1=O)c1cnc(-c2ccc(Cl)cc2)c(-c2ccncc2)c1` [CBK037545], the viability at 28.5 h, 10 µM falls from 106% to 74.8%.

Going from `CN(Cc1nnc(C2CC2)n1C)C1CCN(CCCc2cn[nH]c2)C1` (centres unmarked) [CBK305305] to `CCCC(=O)N1CCCC(c2nnc(-c3cccs3)o2)C1` (centres unmarked) [CBK283057], the viability at 28.5 h, 10 µM falls from 85.2% to 83.6%.

First: CCn1c2cc(C)sc2c2cnn(Cc3cccnc3)c(=O)c21 [CBK284169]
Second: CCn1cnc2sc(-c3ccccc3)cc2c1=O [CBK287952]
The viability at 28.5 h, 10 µM of the first is higher: 86.6% for the first, 65.7% for the second.

First: CCN(CC(=O)Nc1ccccc1OC)S(=O)(=O)c1ccccc1 [CBK269428]
Second: CN(CC(=O)Nc1ccccc1-c1ccccc1)S(=O)(=O)c1ccc2ccccc2c1 [CBK267432]
The viability at 28.5 h, 10 µM of the first is lower: 97.1% for the first, 104% for the second.

Going from `FC(F)(F)c1cccc(OCCCc2ccncc2)n1` [CBK115795] to `Nc1ccccc1Sc1ccc(C(F)(F)F)cn1` [CBK093782], the viability at 28.5 h, 10 µM falls from 98.8% to 91.9%.

Going from `c1ccc(SCCCSc2ccccn2)cc1` [CBK021704] to `O/N=C1/c2ccccc2/C(=N/O)C1c1ccccc1` [CBK261122], the viability at 28.5 h, 10 µM falls from 87% to 75.2%.

Going from `Cc1ccc(C2CCCN2C(=O)Cn2cccc(C(=O)NCc3ccccc3)c2=O)cc1C` (centres unmarked) [CBK286074] to `O=C1NCCC[C@@H]1NC(=O)[C@H]1CN(C(=O)c2ccccc2)CCN1C(=O)c1cccnc1` [CBK289634], the viability at 28.5 h, 10 µM rises from 89.5% to 108%.

First: O=C(O)COc1ccc(NC(=O)Cc2ccc([N+](=O)[O-])cc2)cc1 [CBK268573]
Second: O=C(C1=C(O)C(=O)N(c2ccc([N+](=O)[O-])cc2)C1c1ccccc1)c1ccccc1 (centres unmarked) [CBK263787]
The viability at 28.5 h, 10 µM of the first is higher: 104% for the first, 94.4% for the second.

First: COCCN(Cc1cn2cccc(C(=O)OC)c2n1)Cc1ccco1 [CBK305366]
Second: COC(=O)c1cccc(OCC(O)Cn2ccnc2)c1 (centres unmarked) [CBK307408]
The viability at 28.5 h, 10 µM of the first is lower: 97.8% for the first, 102% for the second.

First: COc1ccccc1CC(C)NC(=O)CCn1ccc2ccncc21 (centres unmarked) [CBK285175]
Second: Cn1c(=O)n(CC(=O)NCc2ccccc2F)c2cccnc21 [CBK283909]
The viability at 28.5 h, 10 µM of the first is higher: 93.8% for the first, 88.1% for the second.

First: CCOC(=O)c1ccoc1CN1CCCC1c1ccsc1 (centres unmarked) [CBK304878]
Second: O=C(NCc1cc(C2CC2)[nH]n1)C1(c2ccccc2F)CC1 [CBK283140]
The viability at 28.5 h, 10 µM of the first is lower: 86.7% for the first, 97.6% for the second.

Going from `CC(Oc1ccccc1F)C(=O)N1CCCCC1CN(C)C` (centres unmarked) [CBK281544] to `CC1CCCCC1NC(=O)CSc1cccc2cccnc12` (centres unmarked) [CBK058143], the viability at 28.5 h, 10 µM rises from 89.5% to 96.9%.

Going from `COC(=O)CC(NC(=O)c1cccc(NC(C)=O)c1)c1cccs1` (centres unmarked) [CBK304537] to `CC(=O)Nc1ccc(NC(=O)CSC2=C(C#N)C(c3ccco3)C3=C(CCCC3=O)N2)cc1` (centres unmarked) [CBK264462], the viability at 28.5 h, 10 µM rises from 78% to 91.8%.

Going from `O=C(CCN1CCCC12CCc1[nH]c3ccccc3c1C2)c1ccc(F)cc1` (centres unmarked) [CBK084593] to `O=S(=O)(Nc1cccc(C(F)(F)F)c1)c1ccc(N2CCCNCC2)c2ccccc12` [CBK003929C], the viability at 28.5 h, 10 µM falls from 92.6% to 86.4%.

First: O=C(C1CCOCC1)N1CCCC(c2cc3cccnc3[nH]2)C1 (centres unmarked) [CBK284941]
Second: COCc1ccc(C(=O)N2CCC(c3cc4cnccc4[nH]3)CC2)cc1 [CBK283448]
The viability at 28.5 h, 10 µM of the first is higher: 109% for the first, 99.3% for the second.

Going from `CN1CCC(N2CCN(C(=O)Nc3ccc4c(c3)OCCO4)CC2)CC1` [CBK155898] to `CC(=O)N1CCc2cc(NC(=O)C3CC4C=CC3C43CC3)ccc21` (centres unmarked) [CBK281472], the viability at 28.5 h, 10 µM falls from 87% to 79.8%.

Compared with `Cc1ccc(Cc2nc(-c3cccnc3)no2)cc1` [CBK288141], `COc1c(Cl)cc(Cl)cc1CNCc1cccnc1` [CBK270142C] is lower in viability at 28.5 h, 10 µM: 94.3% for the first, 94.2% for the second.

Compared with `O=C(CSCc1c(F)cccc1Cl)NCc1ccccc1Cl` [CBK269155], `CCN(CC)C(=O)c1ccccc1NS(=O)(=O)c1cc(Br)c(Cl)s1` [CBK045424] is lower in viability at 28.5 h, 10 µM: 91.6% for the first, 91.3% for the second.

First: O=C1CN(C(=O)c2cc(-c3ccncc3)nc3ccccc23)CCN1 [CBK304370]
Second: CS(=O)(=O)N1CCN(c2ccc(NC(=O)CSc3nc(-c4ccccc4)cs3)cc2)CC1 [CBK267934]
The viability at 28.5 h, 10 µM of the first is higher: 104% for the first, 91.2% for the second.

Compared with `O=C1c2ccc(-c3ccc4c(c3)C(=O)N(Cc3ccco3)C4=O)cc2C(=O)N1Cc1ccco1` [CBK266578], `COc1ccccc1NS(=O)(=O)c1cc(S(=O)(=O)Nc2ccccc2OC)c(C)cc1C` [CBK261493] is lower in viability at 28.5 h, 10 µM: 93.3% for the first, 92% for the second.

First: COC[C@H]1CCCN1C(=O)[C@@H](C)C1CC[C@@]2(C)CC[C@H](NC(C)=O)[C@@H](C)[C@@H]2[C@H]1O (some centres unmarked) [CBK289438]
Second: CC(=O)NCC(=O)N1CCCC2(C/C=C/COc3ccccc3C(=O)NCCNC2=O)C1 (centres unmarked) [CBK291991]
The viability at 28.5 h, 10 µM of the first is higher: 110% for the first, 87.1% for the second.

Going from `O=c1c2c3c(sc2ncn1CC(O)COc1ccc(F)cc1)CCC3` (centres unmarked) [CBK295191] to `COc1ccc(Nc2ncnc3c2oc2ccccc23)cc1` [CBK291236], the viability at 28.5 h, 10 µM falls from 102% to 86.5%.

Going from `CC(C)(C)c1nc(COc2ccc3nonc3c2)no1` [CBK005831] to `COc1ccc(-c2cn(-c3ccc(OC)c(OC)c3)nn2)cc1` [CBK113001], the viability at 28.5 h, 10 µM rises from 91.8% to 121%.

Going from `COC(=O)Cc1c(O)nn(C)c1Cc1cccc(C(F)(F)F)c1` [CBK006608] to `COc1ccc2c(c1)c(C(=O)N1CC(C)(C)C(C)(O)C1)c(C)n2C` (centres unmarked) [CBK306896], the viability at 28.5 h, 10 µM falls from 99.5% to 77.2%.

Compared with `Clc1cncc(-c2cc3ccccc3[nH]2)n1` [CBK154865], `O=C(NC(c1ccccc1)c1ccco1)C1CCN(C(=O)CCC2CCCC2)CC1` (centres unmarked) [CBK059887] is lower in viability at 28.5 h, 10 µM: 101% for the first, 90.4% for the second.

First: C[C@@H]1CNCCN1c1nccnc1OCCOc1cccnc1OCCN [CBK040757T]
Second: CCC(C)CS(=O)(=O)c1nc(C)c(C)n1CC1CCCO1 (centres unmarked) [CBK305107]
The viability at 28.5 h, 10 µM of the first is lower: 88.8% for the first, 114% for the second.

Same assay, conditions: human, hela cells, % viability, bulk resorufin, single well

In the case of `COc1ccc(-c2ccc3c(c2)COC2(CCNCC2)O3)c(OC)c1` [CBK061344], the viability at 28.5 h, 10 µM is reported as 91.1%.
